Laboratory results: patent US20060069132A1, “Azolecarboxamide herbicides” (priority 2004, published 2006)

What was measured:
winter barley = assay: Test C postemergence herbicide test; type: in vivo, Hordeum vulgare
Procedure: (§1) At the same time, plants selected from these crop and weed species and also winter barley (Hordeum vulgare L.), blackgrass (Alopecurus myosuroides Huds.), canarygrass (Phalaris minor Retz.), chickweed (Stellaria media (L.) Vill.), downy bromegrass (Bromus tectorum L.), green foxtail (Setaria viridis (L.) Beauv.), Italian ryegrass (Lolium multiflorum Lam.), wheat (Triticum aestivum L.), wild oat (Avenafatua L.) and windgrass (Apera spica-venti (L.) Beauv.) were treated with postemergence applications of some of the test chemicals formulated in the same manner. Plants ranged in height from 2 to 18 cm (1- to 4-leaf stage) for postemergence treatments. Plant species in the flooded paddy test consisted of rice (Oryza sativa), smallflower umbrella sedge (Cyperus difformis L.), ducksalad (Heteranthera limosa (Sw.) Willd.) and barnyardgrass (Echinochloa crus-galli (L.) Beauv.) grown to the 2-leaf stage for testing. Treated plants and controls were maintained in a greenhouse for 12 to 14 days, after which time all species were compared to controls and visually evaluated. Plant response ratings, summarized in Table C, are based on a scale of 0 to 100 where 0 is no effect and 100 is complete control. A dash (-) response means no test result.

wild oat = assay: Test C postemergence herbicide test; type: in vivo, Avenafatua
Procedure: as §1

blackgrass = assay: Test C postemergence herbicide test; type: in vivo, Alopecurus myosuroides
Procedure: as §1

windgrass = assay: Test C postemergence herbicide test; type: in vivo, Apera spica-venti
Procedure: as §1

Italian ryegrass = assay: Test E pre-/postemergence herbicide test; type: in vivo, Lolium multiflorum; settings: Preemergence
Procedure, shortened: (§2)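 Greenhouse whole-plant test: compounds formulated in a non-phytotoxic solvent mixture with surfactant were applied preemergence to planted seeds and, concurrently, postemergence to plants 2 to 18 cm tall. Response was scored visually after 12 to 14 days, 0 meaning no effect and 100 complete control.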

tropical spiderwort = assay: Test E pre-/postemergence herbicide test; type: in vivo, Commelina benghalensis; settings: Preemergence
Procedure, shortened: as §2

goosegrass = assay: Test E pre-/postemergence herbicide test; type: in vivo, Eleusine indica; settings: Preemergence
Procedure, shortened: as §2

mustard = assay: Test E pre-/postemergence herbicide test; type: in vivo, Brassica nigra; settings: Preemergence
Procedure, shortened: as §2

southern sandbur = assay: Test E pre-/postemergence herbicide test; type: in vivo, Cenchrus echinatus; settings: Preemergence
Procedure, shortened: as §2

common ragweed = assay: Test E pre-/postemergence herbicide test; type: in vivo, Ambrosia elatior; settings: Preemergence
Procedure, shortened: as §2

green foxtail = assay: Test E pre-/postemergence herbicide test; type: in vivo, Setaria viridis; settings: Preemergence
Procedure, shortened: as §2

common mallow = assay: Test E pre-/postemergence herbicide test; type: in vivo, Malva sylvestris; settings: Preemergence
Procedure, shortened: as §2

Canada horseweed = assay: Test E pre-/postemergence herbicide test; type: in vivo, Erigeron Canadensis; settings: Preemergence
Procedure, shortened: as §2

dallisgrass = assay: Test E pre-/postemergence herbicide test; type: in vivo, Paspalum dilatatum; settings: Preemergence
Procedure, shortened: as §2

[1] = Postemergence, 125 g ai/ha, scale 0 to 100, 0 no effect, 100 complete control
[2] = Postemergence, 250 g ai/ha, scale 0 to 100, 0 no effect, 100 complete control
[3] = postemergence, 31 g ai/ha, scale 0 to 100
[4] = postemergence, 62 g ai/ha, scale 0 to 100 (0 no effect, 100 complete control)
[5] = postemergence, 125 g ai/ha, scale 0 to 100
[6] = postemergence, 62 g ai/ha, scale 0 to 100
[7] = 250 g ai/ha, scale 0 (no effect) to 100 (complete control)
[8] = 500 g ai/ha, scale 0 (no effect) to 100 (complete control)
[9] = Postemergence, 500 g ai/ha, scale 0 to 100
[10] = Postemergence, 500 g ai/ha, scale 0 to 100, 0 no effect, 100 complete control

CCOC(=O)c1cccc(NC(=O)c2nn(C(C)(C)CC)nc2CC)c1 [Compound 375]
Plant response rating, Barley, Winter (winter barley; [1]): 30
Plant response rating, Barley, Winter (winter barley; [2]): 40
Plant response rating, Barley, Winter (winter barley; [3]): 10
Plant response rating, Barley, Winter (winter barley; [4]): 20
Plant response rating, Oat, Wild (wild oat; [5]): 55
Plant response rating, Oat, Wild (wild oat; [6]): 45
Plant response rating, Blackgrass (blackgrass; [2]): 55
Plant response rating, Blackgrass (blackgrass; [5]): 45
Plant response rating, Blackgrass (blackgrass; [3]): 30
Plant response rating, Blackgrass (blackgrass; [6]): 35
Plant response rating, Windgrass (windgrass; [5]): 60
Plant response rating, Windgrass (windgrass; [6]): 40

CCc1nn(C(C)(C)C)nc1C(=O)Nc1cccc(C(=O)N(C)CC)c1 [Compound 384]
Plant response rating, Ryegrass, Italian (Italian ryegrass; 62 g ai/ha, scale 0 to 100): 20
Plant response rating, Ryegrass, Italian (Italian ryegrass; 125 g ai/ha, scale 0 to 100): 75
Plant response rating, Ryegrass, Italian (Italian ryegrass; [7]): 80
Plant response rating, Ryegrass, Italian (Italian ryegrass; [8]): 95
Plant response rating, Barley, Winter (winter barley; [1]): 35
Plant response rating, Barley, Winter (winter barley; [2]): 35
Plant response rating, Barley, Winter (winter barley; [3]): 0
Plant response rating, Barley, Winter (winter barley; [4]): 10
Plant response rating, Spiderwort (tropical spiderwort; 125 g ai/ha, scale 0 to 100): 30
Plant response rating, Spiderwort (tropical spiderwort; [7]): 60
Plant response rating, Spiderwort (tropical spiderwort; [8]): 95
Plant response rating, Goosegrass (goosegrass; 62 g ai/ha, scale 0 to 100): 60
Plant response rating, Goosegrass (goosegrass; 125 g ai/ha, scale 0 to 100): 80
Plant response rating, Goosegrass (goosegrass; [7]): 85
Plant response rating, Goosegrass (goosegrass; [8]): 95
Plant response rating, Black Mustard (mustard; 62 g ai/ha, scale 0 to 100): 60
Plant response rating, Black Mustard (mustard; 125 g ai/ha, scale 0 to 100): 80
Plant response rating, Black Mustard (mustard; [7]): 85
Plant response rating, Black Mustard (mustard; [8]): 100
Plant response rating, Oat, Wild (wild oat; [5]): 45
Plant response rating, Oat, Wild (wild oat; [6]): 35
Plant response rating, Blackgrass (blackgrass; [2]): 45
Plant response rating, Blackgrass (blackgrass; [5]): 45
Plant response rating, Blackgrass (blackgrass; [3]): 45
Plant response rating, Blackgrass (blackgrass; [6]): 45
Plant response rating, Sandbur (southern sandbur; 62 g ai/ha, scale 0 to 100): 10
Plant response rating, Sandbur (southern sandbur; 125 g ai/ha, scale 0 to 100): 60
Plant response rating, Sandbur (southern sandbur; [7]): 70
Plant response rating, Sandbur (southern sandbur; [8]): 100
Plant response rating, Ragweed (common ragweed; 62 g ai/ha, scale 0 to 100): 0
Plant response rating, Ragweed (common ragweed; 125 g ai/ha, scale 0 to 100): 10
Plant response rating, Ragweed (common ragweed; [7]): 40
Plant response rating, Ragweed (common ragweed; [8]): 40
Plant response rating, Foxtail, Green (green foxtail; 62 g ai/ha, scale 0 to 100): 10
Plant response rating, Foxtail, Green (green foxtail; [7]): 40
Plant response rating, Foxtail, Green (green foxtail; [8]): 95
Plant response rating, Windgrass (windgrass; [5]): 45
Plant response rating, Windgrass (windgrass; [6]): 45
Plant response rating, Mallow (common mallow; 62 g ai/ha, scale 0 to 100): 50
Plant response rating, Mallow (common mallow; 125 g ai/ha, scale 0 to 100): 70
Plant response rating, Mallow (common mallow; [7]): 70
Plant response rating, Mallow (common mallow; [8]): 95
Plant response rating, Horseweed (Canada horseweed; 125 g ai/ha, scale 0 to 100): 75
Plant response rating, Horseweed (Canada horseweed; [7]): 95
Plant response rating, Horseweed (Canada horseweed; [8]): 100
Plant response rating, Dallisgrass (dallisgrass; 62 g ai/ha, scale 0 to 100): 10
Plant response rating, Dallisgrass (dallisgrass; 125 g ai/ha, scale 0 to 100): 70
Plant response rating, Dallisgrass (dallisgrass; [7]): 75
Plant response rating, Dallisgrass (dallisgrass; [8]): 90

Cc1nn(C(C)(C)C)nc1C(=O)Nc1cccc(C(=O)N2CC=CC2)c1 [Compound 393]
Plant response rating, Ryegrass, Italian (Italian ryegrass; 62 g ai/ha, scale 0 to 100): 10
Plant response rating, Ryegrass, Italian (Italian ryegrass; 125 g ai/ha, scale 0 to 100): 20
Plant response rating, Ryegrass, Italian (Italian ryegrass; [7]): 85
Plant response rating, Ryegrass, Italian (Italian ryegrass; [8]): 85
Plant response rating, Barley, Winter (winter barley; [1]): 35
Plant response rating, Barley, Winter (winter barley; [2]): 35
Plant response rating, Barley, Winter (winter barley; [3]): 20
Plant response rating, Barley, Winter (winter barley; [4]): 35
Plant response rating, Spiderwort (tropical spiderwort; 125 g ai/ha, scale 0 to 100): 100
Plant response rating, Spiderwort (tropical spiderwort; [7]): 100
Plant response rating, Spiderwort (tropical spiderwort; [8]): 100
Plant response rating, Goosegrass (goosegrass; 62 g ai/ha, scale 0 to 100): 10
Plant response rating, Goosegrass (goosegrass; 125 g ai/ha, scale 0 to 100): 50
Plant response rating, Goosegrass (goosegrass; [7]): 95
Plant response rating, Goosegrass (goosegrass; [8]): 95
Plant response rating, Black Mustard (mustard; 62 g ai/ha, scale 0 to 100): 10
Plant response rating, Black Mustard (mustard; 125 g ai/ha, scale 0 to 100): 80
Plant response rating, Black Mustard (mustard; [7]): 95
Plant response rating, Black Mustard (mustard; [8]): 95
Plant response rating, Oat, Wild (wild oat; [5]): 65
Plant response rating, Oat, Wild (wild oat; [6]): 55
Plant response rating, Blackgrass (blackgrass; [2]): 65
Plant response rating, Blackgrass (blackgrass; [5]): 60
Plant response rating, Blackgrass (blackgrass; [3]): 55
Plant response rating, Blackgrass (blackgrass; [6]): 60
Plant response rating, Sandbur (southern sandbur; 62 g ai/ha, scale 0 to 100): 0
Plant response rating, Sandbur (southern sandbur; 125 g ai/ha, scale 0 to 100): 50
Plant response rating, Sandbur (southern sandbur; [7]): 50
Plant response rating, Sandbur (southern sandbur; [8]): 60
Plant response rating, Ragweed (common ragweed; 62 g ai/ha, scale 0 to 100): 0
Plant response rating, Ragweed (common ragweed; 125 g ai/ha, scale 0 to 100): 10
Plant response rating, Ragweed (common ragweed; [7]): 20
Plant response rating, Ragweed (common ragweed; [8]): 80
Plant response rating, Foxtail, Green (green foxtail; 62 g ai/ha, scale 0 to 100): 10
Plant response rating, Foxtail, Green (green foxtail; 125 g ai/ha, scale 0 to 100): 20
Plant response rating, Foxtail, Green (green foxtail; [7]): 70
Plant response rating, Foxtail, Green (green foxtail; [8]): 90
Plant response rating, Windgrass (windgrass; [5]): 55
Plant response rating, Windgrass (windgrass; [6]): 45
Plant response rating, Mallow (common mallow; 62 g ai/ha, scale 0 to 100): 10
Plant response rating, Mallow (common mallow; 125 g ai/ha, scale 0 to 100): 60
Plant response rating, Mallow (common mallow; [7]): 95
Plant response rating, Mallow (common mallow; [8]): 95
Plant response rating, Horseweed (Canada horseweed; 62 g ai/ha, scale 0 to 100): 90
Plant response rating, Horseweed (Canada horseweed; 125 g ai/ha, scale 0 to 100): 95
Plant response rating, Horseweed (Canada horseweed; [7]): 100
Plant response rating, Horseweed (Canada horseweed; [8]): 100
Plant response rating, Dallisgrass (dallisgrass; 62 g ai/ha, scale 0 to 100): 0
Plant response rating, Dallisgrass (dallisgrass; 125 g ai/ha, scale 0 to 100): 10
Plant response rating, Dallisgrass (dallisgrass; [7]): 75
Plant response rating, Dallisgrass (dallisgrass; [8]): 85

CCNC(=O)c1ccc(F)c(NC(=O)c2c3c(nn2CC)C(C)(C)CC3)c1 [Compound 353]
Barley, Winter plant response rating (winter barley; [9]): 25
Plant response rating, Barley, Winter (winter barley; [1]): 15
Plant response rating, Barley, Winter (winter barley; [2]): 20
Plant response rating, Barley, Winter (winter barley; [4]): 5
Plant response rating, Oat, Wild (wild oat; [2]): 40
Plant response rating, Oat, Wild (wild oat; [10]): 60
Plant response rating, Oat, Wild (wild oat; [5]): 30
Plant response rating, Oat, Wild (wild oat; [6]): 10
Blackgrass plant response rating (blackgrass; [9]): 70
Plant response rating, Blackgrass (blackgrass; [2]): 60
Plant response rating, Blackgrass (blackgrass; [5]): 20
Plant response rating, Blackgrass (blackgrass; [6]): 0
Plant response rating, Windgrass (windgrass; [2]): 10
Plant response rating, Windgrass (windgrass; [10]): 10
Plant response rating, Windgrass (windgrass; [5]): 10
Plant response rating, Windgrass (windgrass; [6]): 0
